Measured values as given in PMC12677607, “Identification of a Pair of Linear or Cyclic Naturally Inspired Bifunctional Lipopeptide Antibiotics That Overcome Antimicrobial Resistance” (Advanced Science, 2025).
Bridge positions count the residues as written; N and C are the ends. Square brackets hold non-standard residues; d marks the D form. Peptide text beside a SMILES is read from it. * marks the point of attachment. Myristoyl = CCCCCCCCCCCCCC(=O)*; Orn = NCCC[C@H](N)C(=O)O; Dab = NCC[C@H](N)C(=O)O; Dap = NC[C@H](N)C(=O)O

Assays:
Acute toxicity assay = assay type: in vivo, mouse; conditions: single dose 250 mg kg^−1 intraperitoneal, three mice, five days
Protocol: For acute toxicity assessment, three mice were given a single dose of aquicidine L or aquicidine C4 at 250 mg kg^−1 via intraperitoneal injection. Mice were observed twice daily for mortality and morbidity as well as for possible signs of acute toxicity. The experiment was totally monitored for five days.

S. aureus USA300 [1] = assay: UDP-MurNAc-pentapeptide accumulation assay; assay type: cell-based; conditions: 8 × MIC, 1 hr, LC-MS
Protocol: To determine the effects of aquicidine L or aquicidine C4 on bacterial cell wall biosynthesis of S. aureus USA300, the accumulation of the precursor UDP‐MurNAc‐pentapeptide was investigated in antibiotic‐treated cell cultures. 50 µL of overnight cultures were transferred to 5 mL of fresh LB broth and cultured to 0.5 of OD600 at 37 °C and 200 rpm. The cultures were treated with 130 µg/mL of chloramphenicol for 15 min at 37 °C and 200 rpm, and 128 µg/mL of aquicidine L or 32 µg/mL aquicidine C4 was added. 8 µg/mL of vancomycin and DMSO were used as positive and negative controls, respectively. After an incubation of 1 hr, the cell pellet from 0.5 mL of the cell cultures was resuspended in 30 µL of ddH2O and then boiled for 15 min. Finally, the supernatant was collected and then detected using an Agilent 1290 Series High‐Performance Liquid Chromatography (HPLC) coupled to a 6546 Series QTOF mass spectrometer equipped with an XBridge C18 column (4.6 × 150 mm, 5 µm). Solvent A = H2O (0.1% v/v formic acid) and solvent B = CH3CN (0.1% v/v formic acid) were used for HPLC analysis with 0.4 mL min^−1 of flow rate at 25 °C. Gradient conditions were as follows: t = 0‐1 min, 3% solvent B; t = 2‐7 min, 3‐95% solvent B; t = 7‐8 min, 95% solvent B; t = 8–9 min, 95‐3% solvent B; t = 9–10 min, 3% solvent B.

S. aureus USA300 [2] = assay: Membrane depolarization assay (DiSC3(5)); assay type: cell-based; conditions: S. aureus USA300 in PBS, 4 × MIC, n = 2
Protocol: Bacterial membrane depolarization assay was performed in 384‐well black microtiter plates. Overnight cell cultures of S. aureus USA300 were collected and resuspended in PBS buffer to an OD600 of 0.5. Then, 100 µL of the diluted cell suspension and 50 µL of 20 µM DiSC3(5) dye were added to 300 µL of PBS buffer, which was incubated for 15 min at room temperature in the dark. 50 µL of 2 M KCl was then added and incubated for another 15 min. Fluorescence intensity was determined continually at 2 s intervals (Ex/Em 643/675 nm) using a Tecan spark multimode microplate reader. When the signal stabilized, the appropriate amount of aquicidine L or aquicidine C4 (6.4 mg mL^−1 in DMSO, 4 × MIC) was added. DMSO and daptomycin were used as negative and positive controls, respectively. Data were shown as the relative intensity with respect to the average fluorescence signal prior to the addition of each compound. All assays were performed two independent times (n = 2), and a representative fluorescence recording was presented.

S. aureus USA300 [3] = assay: Membrane lysis assay (SYTOX Green); assay type: cell-based; conditions: S. aureus USA300 in PBS, 8 × MIC, n = 2
Protocol: Bacterial membrane lysis assay was performed in 384‐well black microtiter plates. Overnight cultures of S. aureus USA300 were collected and resuspended in PBS buffer to an OD600 of 0.5. 1 µL of 5 mM SYTOX Green dye was added to 2.5 mL of the diluted cell suspension, which was incubated for 10 min at room temperature in the dark. Fluorescence intensity was detected continually at 2 s intervals (Ex/Em 488/523 nm) using a Tecan spark multimode microplate reader. When the fluorescence signal stabilized, the appropriate amount of each compound (6.4 mg mL^−1 in DMSO, 8 × MIC) was added. DMSO and daptomycin (with 15 mM CaCl2) were used as negative and positive controls, respectively. Data were shown as the relative intensity with respect to the average fluorescence signal prior to the addition of each compound. All membrane lysis assays were performed two independent times (n = 2), and a representative fluorescence recording was presented.

S. aureus USA300 [4] = assay: Time-dependent killing assay; assay type: cell-based; conditions: 4× MIC, time-dependent killing curve, n = 3
Protocol: Overnight cultures of S. aureus USA300 were diluted 1:10000 in LB broth and incubated for 2 h at 37 °C and 200 rpm. […] After 15, 30, 60, 120, 180, 240, 300, and 360 min, 100 µL of cell suspension were collected, serially diluted, and plated on LB agar plates. After an incubation of 16 h at 37 °C, bacterial colonies were counted. Experiments were performed three independent times (n = 3).

E. coli DH5α = assay: Bactericidal effects / cell lysis in E. coli; assay type: cell-based; conditions: after 12 h at 16× MIC, Figure S123a
[5] = Isothermal titration calorimetry; assay type: binding; conditions: Table S12, ITC, 20 mM HEPES pH 7.5, 20 injections
Protocol: Calorimetric experiments were performed to evaluate the interaction between CL, PE, PG, or LPS and aquicidine L or aquicidine C4. To determine the affinity between aquicidine L or aquicidine C4 and CL, PE, or PG, both 2 mM CL, PE, or PG and 0.2 mM aquicidine L or aquicidine C4 were dissolved in 20 mM HEPES buffer (pH 7.5). To determine the interaction between LPS and aquicidine L or aquicidine C4, 2 mM LPS and 0.2 mM aquicidine L or aquicidine C4 were dissolved in H2O. Sequential injections of CL, PE, PG, or LPS into the calorimetric cell filled with aquicidine L or aquicidine C4 were repeated 20 times with equilibration intervals of 200 s. Data were collected by using a MicroCal PEAQ‐ITC instrument and calculated for the equilibrium dissociation constant (KD), change of enthalpy (ΔH), and change of entropy […].

[6] = system: Candida albicans ATCC 64550; assay type: cell-based; conditions: ATCC 64550, 16 h
Protocol: All MIC assays were performed two independent times (n = 2) in 96‐well plates using a broth micro‐dilution method. The lowest concentration of that inhibited visible microbial growth was recorded as the MIC value.
For fungal strains, overnight cultures were diluted 2000‐fold in YPD broth. 100 µL of diluted cells was mixed with 100 µL of YPD broth containing each peptide ranging from […] 64 to 0.125 µg mL^−1 at 2‐fold serial dilutions.

Row | Structure (SMILES) | acute toxicity in mouse (Acute toxicity assay) | accumulation of UDP-MurNAc-pentapeptide (S. aureus USA300 [1]) | DiSC3(5) fluorescence (membrane depolarization) (S. aureus USA300 [2]) | SYTOX fluorescence (cell lysis) (S. aureus USA300 [3]) | bactericidal activity, number of viable cells (S. aureus USA300 [4]) | cell lysis in E. coli (E. coli DH5α) | Kd ([5]; 2 mM CL into 0.2 mM peptide) | Kd ([5]; 2 mM PE into 0.2 mM peptide) | Kd ([5]; 2 mM PG into 0.2 mM peptide) | MIC Candida albicans ATCC 64550 [6]
1 | CCCCCCCCCCCCCC(=O)N[C@@H](CN)C(=O)N[C@H](C(=O)N[C@@H](CC(C)C)C(=O)N[C@@H](CO)C(=O)N[C@@H](CCN)C(=O)N[C@@H](CN)C(=O)N[C@@H](Cc1ccccc1)C(=O)N[C@H](C(=O)N[C@@H](CCCN)C(=O)N[C@@H](CC(N)=O)C(=O)N[C@@H](Cc1ccccc1)C(=O)O)[C@@H](C)CC)[C@@H](C)O [synAQU5-L] (Myristoyl-[Dap]TLS[Dab][Dap]FI[Orn]NF-OH) | no obvious acute toxicities | did not show an obvious accumulation | not aquicidine L caused a significant increase | not aquicidine L caused a significant increase | only inhibited the growth of S. aureus USA300 within 2 h | significantly led to cell lysis | 0.28 µM | 7.88 µM | 0.32 µM | > 64 µg/mL
2 | CCCCCCCCCCCCCC(=O)N[C@@H](CN)C(=O)N[C@H](C(=O)N[C@@H](CC(C)C)C(=O)N[C@H]1COC(=O)[C@H](Cc2ccccc2)NC(=O)[C@H](CC(N)=O)NC(=O)[C@H](CCCN)NC(=O)[C@H]([C@@H](C)CC)NC(=O)[C@H](Cc2ccccc2)NC(=O)[C@H](CN)NC(=O)[C@H](CCN)NC1=O)[C@@H](C)O [synAQU5-C4] (Myristoyl-[Dap]TLS[Dab][Dap]FI[Orn]NF; ester 4-C) | no obvious acute toxicities | did not show an obvious accumulation | significant increase | significant increase | decreased the number of viable cells by two orders of magnitude after 5 h | slightly led to cell lysis | 0.06 µM | 49.3 µM | 0.08 µM | > 64 µg/mL
